Patent US20250321225A1, “SKIN DAMAGE ORGANOID MODEL AND DRUG SCREENING METHOD USING THE SAME” (KANGSTEM BIOTECH CO., LTD., priority 2023, published 2025)

Key:
Format in all cases: cell-based, human
[1] = system: hair follicles in SkOs; test: Hair follicle damage in sUV-exposed SkOs
Protocol: The effects of sUV exposure on skin appendages in the dermis of SkOs were investigated. As a result, it was confirmed that the expression of a KRT5 marker constituting the outer layer of a hair follicle in SkOs was reduced. […] Accordingly, to thoroughly compare the extent of hair follicle damage, hair follicles were isolated from each skin organoid and subjected to qRT-PCR analysis. […] To determine the optimal concentration of UCB-Exos for alleviating SkO damage by sUV, SkOs were treated with different concentrations of UCB-Exos two hours after sUV exposure, and this procedure was repeated three times (FIG. 5A). […] The effect of UCB-Exos on hair follicles in SkOs was investigated. In the hair follicles, apoptosis (cleaved caspase-3^+) was reduced, and the number of regenerating cells (Ki67^+) increased (FIGS. 6A and 6B). In addition, keratinocytes and fibroblasts in the hair follicles aged by sUV are known to secrete MMPs and inflammatory cytokines known as a senescence-associated secretory phenotype (SASP).

[2] = system: NF-κB; test: IκB/NF-κB signaling in sUV-exposed SkOs (Western blotting, immunofluorescence)
Description: NF-κB is known to play an important role in regulating the expression of immune mediators. […] When activated by external stimuli such as inflammatory cytokines or cellular stress, the IκBα protein is phosphorylated and subsequently degraded, releasing NF-κB from the NF-κB-IκB complex. The released NF-κB translocates to the cell nucleus to promote the transcription of genes involved in inflammation and induce cytokine production. Considering the above, the present inventors investigated whether IκB-dependent NF-κB activation mediates the inflammatory response in hair follicles.
This caused the disruption of the NF-κB-IκB complex which activated NF-κB and caused it to translocate to the nucleus, as evidenced by increased NF-κB expression in the nuclear compartment of SkOs exposed to sUV. After treating the sUV-exposed SkOs with UCB-Exos, it was observed that both IκBα phosphorylation and degradation decrease, and nuclear translocation of NF-κB was inhibited (FIGS. 7A and 7B). […] Generally, hair follicles are composed of keratinocytes and fibroblasts, both of which play an important role in skin inflammatory responses. […] Meanwhile, the epidermis of SkOs, which is the uppermost layer exposed to sUV, was also inflamed, which may extend to the dermis and indirectly damage hair follicles (FIGS. 7G and 7H).
To evaluate the direct effect of UCB-Exos alleviating sUV-induced damage by NF-κB activation, the present inventors treated a sUV-damaged organoid with the NF-κB inhibitor, BAY11-7082. BAY11-7082 is known to inhibit the translocation of NF-κB to the nucleus by inhibiting the degradation of IκBα unit, thereby preventing further activation of NF-κB signaling.
As expected, it was confirmed that IL-6 expression was positively correlated with the expression level of NF-κB (FIGS. 8A and 8B).

[3] = system: inflammatory cytokines, such as IL-6, TNF-α, and IL-1β; test: Inflammatory cytokine expression and secretion in sUV-exposed SkOs (qPCR, immunofluorescence, ELISA)
Protocol: It is known that sUV irradiation causes the secretion of pro-inflammatory cytokines in skin tissue, leading to skin inflammation and subsequent skin damage. Accordingly, it was investigated whether sUV exposure can also affect hair follicles and induce an inflammatory response in the dermis of SkOs.
Furthermore, the secretion of inflammatory cytokines, such as IL-6, TNF-α, and IL-1β, increased by sUV exposure, was evaluated by ELISA.

[4] = system: normal hair follicles; test: Hair follicle growth in normal hair follicle organoid; details: for hair follicle length compared to the control: 14 days after drug treatment
Description: The hair follicle growth was compared after treatment with each of minoxidil, which is known to promote hair follicle growth, and dihydrotestosterone (DHT), which is an endogenous hormone causing hair loss.

SMILES	apoptosis / death rate in hair follicles ([1]; Example 6)	mRNA expression of ECM components associated with inflammatory cytokines and SASP ([1]; hair follicles)	IκBα degradation ([2]; Western blotting, Example 6)	NF-κB nuclear translocation / activation / levels ([2]; Western blotting, Example 6)	phosphorylated IκBα ([2]; Western blotting, Example 6)	NF-κB translocation to the nuclei in hair follicles ([2]; immunofluorescence staining)	difference in IL-6 and TNF-α secretion between BAY11-7082-treated SkOs and UCB-Exos-treated SkOs ([3]; ELISA)	IL-6 in the cytoplasm in hair follicles ([3]; immunofluorescence staining)	hair follicle length compared to the control [4]	expression of genes (IGF-1, WNT3A) associated with hair growth promotion ([4]; compared to the control)	hair loss-associated genes (DKK1, TGFb-2) ([4]; compared to the control)
Cc1ccc(S(=O)(=O)/C=C/C#N)cc1 [BAY11-7082]	reduced	dramatically reduced	inhibition	reduced	decreased	significant decrease	no significant difference	significant decrease	approximately 1.4 fold	upregulated	downregulated
C[C@]12CCC(=O)C[C@@H]1CC[C@@H]1[C@@H]2CC[C@]2(C)[C@@H](O)CC[C@@H]12 [DHT, dihydrotestosterone]	–	–	–	–	–	–	–	–	approximately 0.7 fold	–	–
Nc1cc(N2CCCCC2)nc(N)[n+]1[O-] [minoxidil]	–	–	–	–	–	–	–	–	approximately 1.3 fold	–	–
